Assay results: patent publication US9914730B2, “Azaquinazoline inhibitors of Atypical protein Kinase C” (Ignyta, Inc., priority 2012, dated 2018)

What follows are compounds tested against T1, full-length human PKCι (Homo sapiens, UniProt P41743) (assay: PKCι IC50 IMAP assay, full-length PKCι at 150 μM ATP). Settings: read-out: IC50 in IMAP assay against full length PKCi at 150 μM ATP.
T1 construct: Recombinant, full-length human PKCι expressed in Sf21 insect cells is also commercially available; purchased; host or cells: Sf21 insect cells
T1 sequence (P41743 1-596): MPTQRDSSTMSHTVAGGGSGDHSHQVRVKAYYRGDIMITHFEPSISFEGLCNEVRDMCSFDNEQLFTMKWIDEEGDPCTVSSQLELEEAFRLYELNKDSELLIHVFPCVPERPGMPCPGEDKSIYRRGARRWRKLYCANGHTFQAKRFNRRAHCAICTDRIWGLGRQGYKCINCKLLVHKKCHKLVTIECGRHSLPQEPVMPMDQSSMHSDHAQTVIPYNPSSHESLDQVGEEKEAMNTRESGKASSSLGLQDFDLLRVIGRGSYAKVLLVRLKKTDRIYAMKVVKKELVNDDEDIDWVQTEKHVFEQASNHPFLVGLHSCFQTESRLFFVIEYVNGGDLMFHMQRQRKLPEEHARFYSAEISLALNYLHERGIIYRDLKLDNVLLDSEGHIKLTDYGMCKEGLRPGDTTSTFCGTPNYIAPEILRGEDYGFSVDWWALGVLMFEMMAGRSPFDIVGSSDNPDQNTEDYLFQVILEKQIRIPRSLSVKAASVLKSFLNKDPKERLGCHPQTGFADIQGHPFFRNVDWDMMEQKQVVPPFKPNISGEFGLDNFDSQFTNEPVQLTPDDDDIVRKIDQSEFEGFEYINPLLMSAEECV
Type: biochemical
How it was run: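 Dose-response IC50 values come from IMAP fluorescence polarisation after 60 min room-temperature turnover of 100 nM FAM peptide by ~15 pM insect-cell-expressed full-length PKCι at 150 μM ATP (5× KM^APP), normalised to no-compound and no-enzyme controls.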

| SMILES | IC50 [nM] |
| --- | --- |
| Clc1cncc2nc(-c3ccncc3)nc(N3CCNCC3)c12 [Example 132, 5-Chloro-4-piperazin-1-yl-2-pyridin-4-yl-pyrido[3,4-d]pyrimidine] | < 100 |
| Brc1cncc2nc(-c3ccncc3)nc(N3CCNCC3)c12 [Example 133, 1-[5-bromo-2-(pyridin-4-yl)pyrido[3,4-d]pyrimidin-4-yl]piperazine] | < 100 |
| Clc1ncc(Cl)c2c(N3CCNCC3)nc(-c3ccncc3)nc12 [Example 134, 1-[5,8-dichloro-2-(pyridin-4-yl)pyrido[3,4-d]pyrimidin-4-yl]piperazine] | < 100 |
| CCCCc1cncc2nc(-c3ccncc3)nc(N3CCNCC3)c12 [Example 135, 5-Butyl-4-piperazin-1-yl-2-pyridin-4-yl-pyrido[3,4-d]pyrimidine] | < 100 |
| CCc1cncc2nc(-c3ccncc3)nc(N3CCNCC3)c12 [Example 136, 1-[5-ethyl-2-(pyridin-4-yl)pyrido[3,4-d]pyrimidin-4-yl]piperazine] | < 100 |
| Cc1cncc2nc(-c3ccncc3)nc(N3CCNCC3)c12 [Example 138, 1-[5-methyl-2-(pyridin-4-yl)pyrido[3,4-d]pyrimidin-4-yl]piperazine] | < 100 |
| c1cc(-c2nc(N3CCNCC3)c3c(C4CC4)cncc3n2)ccn1 [Example 139, 1-[5-cyclopropyl-2-(pyridin-4-yl)pyrido[3,4-d]pyrimidin-4-yl]piperazine] | < 100 |
| c1ccc(COCc2cncc3nc(-c4ccncc4)nc(N4CCNCC4)c23)cc1 [Example 140, 1-{5-[(benzyloxy)methyl]-2-(pyridin-4-yl)pyrido[3,4-d]pyrimidin-4-yl}piperazine] | 100 to 1000 |
| Clc1cnc(-c2cc[nH]n2)c2nc(-c3ccncc3)nc(N3CCNCC3)c12 [Example 141, 5-Chloro-4-piperazin-1-yl-8-(1H-pyrazol-3-yl)-2-pyridin-4-yl-pyrido[3,4d]pyrimidine] | 100 to 1000 |
| CN(C)c1ncc(Cl)c2c(N3CCNCC3)nc(-c3ccncc3)nc12 [Example 142, 5-chloro-N,N-dimethyl-4-(piperazin-1-yl)-2-(pyridin-4-yl)pyrido[3,4-d]pyrimidin-8-amine] | 1000 to 10000 |
| C=C(C)c1cncc2nc(-c3ccncc3)nc(N3CCNCC3)c12 [Example 143, 5-Isopropenyl-4-piperazin-1-yl-2-pyridin-4-yl-pyrido[3,4-d]pyrimidine] | < 100 |
| COc1cncc2nc(-c3ccncc3)nc(N3CCCCC3)c12 [Example 151, 5-Methoxy-4-piperidin-1-yl-2-pyridin-4-yl-pyrido[3,4-d]pyrimidine] | 100 to 1000 |
| COc1cncc2nc(-c3ccncc3)nc(N3CCC(N)(C(N)=O)C3)c12 (centres unmarked) [Example 152, 3-Amino-1-(5-methoxy-2-pyridin-4-yl-pyrido[3,4-d]pyrimidin-4-yl)-pyrrolidine-3-carboxylic acid amide] | 1000 to 10000 |
| COc1cncc2nc(-c3ccncc3)nc(N3CCC(N)(C(=O)Nc4ccccc4)C3)c12 (centres unmarked) [Example 153, 3-Amino-1-(5-methoxy-2-pyridin-4-yl-pyrido[3,4-d]pyrimidin-4-yl)-pyrrolidine-3-carboxylic acid phenylamide] | 1000 to 10000 |
| COc1cncc2nc(-c3ccncc3)nc(N3CCC(N)(C(=O)N[C@@H](CCO)c4ccc(Cl)cc4)CC3)c12 [Example 154, 4-Amino-1-(5-methoxy-2-pyridin-4-yl-pyrido[3,4-d]pyrimidin-4-yl)-piperidine-4-carboxylic acid [(S)-1-(4-chloro-phenyl)-3-hydroxy-propyl]-amide] | 100 to 1000 |
| COC(=O)C1CN(c2nc(-c3ccncc3)nc3cncc(OC)c23)CCN1 (centres unmarked) [Example 155, 4-(5-Methoxy-2-pyridin-4-yl-pyrido[3,4-d]pyrimidin-4-yl)-piperazine-2-carboxylic acid methyl ester] | 1000 to 10000 |
| COc1cncc2nc(-c3ccncc3)nc(N3CCNC(C(=O)Nc4ccccc4)C3)c12 (centres unmarked) [Example 156, 4-(5-Methoxy-2-pyridin-4-yl-pyrido[3,4-d]pyrimidin-4-yl)-piperazine-2-carboxylic acid phenylamide] | 1000 to 10000 |
| COc1cncc2nc(-c3ccncc3)nc(N3CCNC(C(=O)NCc4ccccc4)C3)c12 (centres unmarked) [Example 157, 4-(5-Methoxy-2-pyridin-4-yl-pyrido[3,4-d]pyrimidin-4-yl)-piperazine-2-carboxylic acid benzylamide] | 1000 to 10000 |
| COc1cncc2nc(-c3ccncc3)nc(N3CCNC(C(=O)NCCc4ccccc4)C3)c12 (centres unmarked) [Example 158, 4-(5-Methoxy-2-pyridin-4-yl-pyrido[3,4-d]pyrimidin-4-yl)-piperazine-2-carboxylic acid phenethyl-amide] | 1000 to 10000 |
| CCCc1nccc2c(N3CCNCC3)nc(-c3ccncc3)nc12 [Example 159, 4-piperazin-1-yl-8-propyl-2-pyridin-4-yl-pyrido[3,4-d]pyrimidine] | 10000 to 40000 |
| Cc1nccc2c(N3CCNCC3)nc(-c3ccncc3)nc12 [Example 160, 8-Methyl-4-piperazin-1-yl-2-pyridin-4-yl-pyrido[3,4-d]pyrimidine] | 10000 to 40000 |
| COc1cncc2nc(-c3ccnc(Nc4ccccc4)c3)nc(N3CCNCC3)c12 [Example 200, [4-(5-Methoxy-4-piperazin-1-yl-pyrido[3,4-d]pyrimidin-2-yl)-pyridin-2-yl]-phenyl-amine] | < 100 |
| COc1cncc2nc(-c3ccnc(Nc4cnccn4)c3)nc(N3CCNCC3)c12 [Example 201, [4-(5-Methoxy-4-piperazin-1-yl-pyrido[3,4-d]pyrimidin-2-yl)-pyridin-2-yl]-pyrazin-2-yl-amine] | < 100 |
| COc1cncc2nc(-c3ccnc(Nc4nc(C(F)(F)F)co4)c3)nc(N3CCNCC3)c12 [Example 202, [4-(5-Methoxy-4-piperazin-1-yl-pyrido[3,4-d]pyrimidin-2-yl)-pyridin-2-yl]-(4-trifluoromethyl-oxazol-2-yl)-amine] | < 100 |

The next lines start with the values.

| IC50 [nM] | SMILES |
| --- | --- |
| 100 to 1000 | NCc1ccc(-c2nccc3c(NC[C@@H](N)Cc4ccccc4)nc(-c4ccncc4)nc23)o1 [Example 121, N-[(2S)-2-amino-3-phenylpropyl]-8-[5-(amino-methyl)-furan-2-yl]-2-(pyridin-4-yl)pyrido[3,4-d]pyrimidin-4-amine] |
| 100 to 1000 | N[C@@H](CNc1nc(-c2ccncc2)nc2c(-c3ccccn3)nccc12)Cc1ccccc1 [Example 122, (R)-3-Phenyl-N^1-(2-pyridin-4-yl-8-pyridin-2-yl-pyrido[3,4-d]pyrimidin-4-yl)-propane-1,2-diamine] |
| 1000 to 10000 | N[C@@H](CNc1nc(-c2ccncc2)nc2c(Nc3ccccc3)nccc12)Cc1ccccc1 [Example 123, N^4-((R)-2-Amino-3-phenyl-propyl)-N^8-phenyl-2-pyridin-4-yl-pyrido[3,4-d]pyrimidine-4,8-diamine] |
| 1000 to 10000 | N[C@H](CNc1nc(-c2ccncc2)nc2c(Nc3ncccn3)nccc12)Cc1ccccc1 [Example 124, 4-N-[(2S)-2-amino-3-phenylpropyl]-2-(pyridin-4-yl)-8-N-(pyrimidin-2-yl)pyrido[3,4-d]pyrimidine-4,8-diamine] |
| 1000 to 10000 | N[C@H](CNc1nc(-c2ccncc2)nc2c(Nc3cccc(Cl)c3)nccc12)Cc1ccccc1 [Example 125, 4-N-[(2S)-2-amino-3-phenylpropyl]-8-N-(3-chlorophenyl)-2-(pyridin-4-yl)pyrido[3,4-d]pyrimidine-4,8-diamine] |
| 100 to 1000 | N[C@H](CNc1nc(-c2ccncc2)nc2c(Nc3nc[nH]n3)nccc12)Cc1ccccc1 [Example 126, 4-N-[(2S)-2-amino-3-phenylpropyl]-2-(pyridin-4-yl)-8-N-(1H-1,2,4-triazol-3-yl)pyrido[3,4-d]pyrimidine-4,8-diamine] |
| 10000 to 40000 | CN1CCN(c2nccc3c(NC[C@H](N)Cc4ccccc4)nc(-c4ccncc4)nc23)CC1 [Example 127, (R)—N^1-[8-(4-Methyl-piperazin-1-yl)-2-pyridin-4-yl-pyrido[3,4-d]pyrimidin-4-yl]-3-phenyl-propane-1,2-diamine] |
| 1000 to 10000 | N[C@@H](CNc1nc(-c2ccncc2)nc2c(Sc3ccccc3)nccc12)Cc1ccccc1 [Example 128, (R)-3-Phenyl-N^1-(8-phenylsulfanyl-2-pyridin-4-yl-pyrido[3,4-d]pyrimidin-4-yl)-propane-1,2-diamine] |
| 100 to 1000 | N[C@H](CNc1nc(-c2ccncc2)nc2c(Oc3ccccc3)nccc12)Cc1ccccc1 [Example 129, N-[(2S)-2-amino-3-phenylpropyl]-8-phenoxy-2-(pyridin-4-yl)pyrido[3,4-d]pyrimidin-4-amine] |
| 1000 to 10000 | CSc1nccc2c(NC[C@@H](N)Cc3ccccc3)nc(-c3ccncc3)nc12 [Example 130, N-[(2S)-2-amino-3-phenylpropyl]-8-(methylsulfanyl)-2-(pyridin-4-yl)pyrido[3,4-d]pyrimidin-4-amine] |
| < 100 | CCc1cncc2nc(-c3ccncc3)nc(NC[C@@H](N)Cc3ccccc3)c12 [Example 137, N-[(2S)-2-amino-3-phenylpropyl]-5-ethyl-2-(pyridin-4-yl)pyrido[3,4-d]pyrimidin-4-amine] |
